Measurements as given in ChEMBL document CHEMBL2040759, “Design, synthesis and anticancer activity of nitric oxide donating/chalcone hybrids” (2012).

How the values were obtained:
Type in all cases: functional
K562 = experiment: Growth inhibition of human K562 cells after 48 hrs by SRB assay; settings: K562, 48 h
MOLT-4 = experiment: Growth inhibition of human MOLT4 cells after 48 hrs by SRB assay; settings: MOLT-4, 48 h
SR = experiment: Growth inhibition of human SR cells after 48 hrs by SRB assay
NCI-H23 = experiment: Growth inhibition of human NCI-H23 cells after 48 hrs by SRB assay; settings: NCI-H23, 48 h
NCI-H522 = experiment: Growth inhibition of human NCI-H522 cells after 48 hrs by SRB assay; settings: NCI-H522, 48 h
SF-268 = experiment: Growth inhibition of human SF268 cells after 48 hrs by SRB assay; settings: SF-268, 48 h
U-251 = experiment: Growth inhibition of human U251 cells after 48 hrs by SRB assay; settings: U-251, 48 h
LOX IMVI = experiment: Growth inhibition of human LOXIMVI cells after 48 hrs by SRB assay
MDA-MB-435 = experiment: Growth inhibition of human MDA-MB-435 cells after 48 hrs by SRB assay; settings: MDA-MB-435, 48 h
SK-MEL-2 = experiment: Growth inhibition of human SK-MEL-2 cells after 48 hrs by SRB assay; settings: SK-MEL-2, 48 h
DU-145 = experiment: Growth inhibition of human DU145 cells after 48 hrs by SRB assay; settings: DU-145, 48 h
T47D = experiment: Growth inhibition of human T47D cells after 48 hrs by SRB assay
HL-60(TB) = experiment: Growth inhibition of human HL-60(TB) cells assessed as cell growth at 10^-5 M after 48 hrs by SRB assay; settings: HL-60, 48 h, read-out: Activity
[1] = read-out: LC50 (the source's name)

For `O=C(CO[N+](=O)[O-])Nc1ccc(C(=O)/C=C/c2ccc(Cl)cc2)cc1`, the GI50 (K562) was 2.6 µM, the TGI (K562) was > 100 µM and the CC50 (K562; [1]) was > 100 µM. The GI50 (MOLT-4) was 4.68 µM, the TGI (MOLT-4) was 69.4 µM and the CC50 (MOLT-4; [1]) was > 100 µM. For the same compound, the GI50 (SR) was 3.64 µM, the TGI (SR) was > 100 µM and the CC50 (SR; [1]) was > 100 µM. The GI50 (NCI-H23) was 4.55 µM, the TGI (NCI-H23) was 22.1 µM and the CC50 (NCI-H23; [1]) was 81.1 µM. The GI50 (NCI-H522) was 2.31 µM, the TGI (NCI-H522) was 8.37 µM and the CC50 (NCI-H522; [1]) was 32.8 µM. It also gave a GI50 (SF-268) of 2.62 µM, a TGI (SF-268) of 11.7 µM and a CC50 (SF-268; [1]) of 38 µM. For the same compound, the GI50 (U-251) was 1.48 µM, the TGI (U-251) was 3.15 µM and the CC50 (U-251; [1]) was 6.68 µM. The GI50 (LOX IMVI) was 1.59 µM, the TGI (LOX IMVI) was 3.51 µM and the CC50 (LOX IMVI; [1]) was 7.74 µM. For the same compound, the GI50 (MDA-MB-435) was 2.96 µM, the TGI (MDA-MB-435) was 11.2 µM and the CC50 (MDA-MB-435; [1]) was 59 µM. The GI50 (SK-MEL-2) was 9.69 µM, the TGI (SK-MEL-2) was 23.3 µM and the CC50 (SK-MEL-2; [1]) was 54.7 µM. It also gave a GI50 (DU-145) of 3.41 µM, a TGI (DU-145) of 13.5 µM and a CC50 (DU-145; [1]) of 36.7 µM. The GI50 (T47D) was 3.26 µM, the TGI (T47D) was 14.9 µM and the CC50 (T47D; [1]) was 58.3 µM.
`O=C(CO[N+](=O)[O-])Nc1ccc(C(=O)/C=C/c2ccc3c(c2)OCO3)cc1` showed a growth at 10 µM (HL-60(TB)) of 73.7%.
